Measured values taken from article PMC8838787, “The Antiproliferative and Apoptotic Effects of a Novel Quinazoline Carrying Substituted-Sulfonamides: In Vitro and Molecular Docking Study” (Molecules, 2022).

Assays:
A549 (lung) cancer cells = assay: MTT cell viability assay, A549; format: cell-based; conditions: Homo sapiens, A549, 48 h, average ± SD (n = 3)
Procedure: (§1) Compounds 4a–n were subjected to the cytotoxicity screening of the cell lines MCF-7 (breast), LoVo (colon), HepG2 (liver) and A549 (lung) carcinoma cells as well as HUVEC normal cell lines. The MTT assay was employed to assess cytotoxicity after 48 h of treatment with different concentrations of each compound and doxorubicin was used as a reference drug. The results were presented in Table 1 as growth inhibitory concentration (IC50 values).
(§2) Cell viability was determined using 3-(4,5-dimethylthiazol-2-yl)-2,5-diphenyl tetrazolium bromide (MTT) assay as stated previously. In brief, A549 (lung), HepG2 (liver), LoVo (colon), MCF-7 (breast) cancer cells as well as normal cells (HUVEC) were seeded in 96-well plates (10^5 per well) and compounds were added in a different final concentration. All cells were treated for 48 h, and then 10μL of MTT reagent (5 mg/mL) was added to each well and further incubated for 4 h. Thereafter, 0.1 mL of acidified isopropanol was added to solubilize formazan product and the developed color was measured at 570 nm in Microplate ELISA Reader (BioTek, Elx-800, Winooski, VT, USA). The IC50 values (concentration required for 50% inhibition of cell viability) were calculated using dose response curve. Cell viability was calculated as = (Ab Treated/Ab Control) × 100.
(§3) The A549, HepG2, LoVo and MCF-7 cancer cell lines were obtained from the German Collection of Microorganisms and Cell Cultures (DSMZ) (Braunschweig, Germany). For Human umbilical vein endothelial cells (HUVEC cells), it was purchased from American Type Culture Collection (16549; Cat no. PCS-100-010; ATTCC, Manassas, VA, USA).

[1] = test system: HepG2 (liver) cancer cells; assay: MTT cell viability assay, HepG2; format: cell-based; conditions: Homo sapiens, 48 h, average ± SD (n = 3)
Procedure: as §1, §2, §3

HUVEC normal cells = assay: MTT cell viability assay, normal HUVEC; format: cell-based; conditions: Homo sapiens, 48 h, average ± SD (n = 3)
Procedure: as §1, §2, §3

[2] = test system: LoVo (colon) cancer cells; assay: MTT cell viability assay, LoVo; format: cell-based; conditions: Homo sapiens, 48 h, average ± SD (n = 3)
Procedure: as §1, §2, §3

[3] = test system: MCF-7 (breast) cancer cells; assay: MTT cell viability assay, MCF-7; format: cell-based, human; conditions: for cytotoxic activity (in words, SAR discussion): 48 h; for IC50: Homo sapiens, MCF7, 48 h, average ± SD (n = 3)
Procedure: as §1, §2, §3

| Structure (SMILES) | melting point [°C] | IC50 (A549 (lung) cancer cells) [µM] | IC50 [1] [µM] | IC50 [2] [µM] | IC50 [3] [µM] | IC50 (HUVEC normal cells) [µM] | cytotoxic activity (in words, SAR discussion) [3] |
| --- | --- | --- | --- | --- | --- | --- | --- |
| COc1cccc2c(=O)n(-c3ccc(S(=O)(=O)NCC(=O)Nc4ccccc4)cc3)c(SCC(=O)Nc3ccccc3)nc12 [Compound 4a] | 165 to 167 | 19.6 ± 1.7 | 35 ± 1.2 | 37.5 ± 1.8 | 14.2 ± 0.4 | 20.9 ± 1 |  |
| COc1cccc2c(=O)n(-c3ccc(S(=O)(=O)NCC(=O)Nc4ccc([N+](=O)[O-])cc4C)cc3)c(SCC(=O)Nc3ccc([N+](=O)[O-])cc3C)nc12 [Compound 4l, 2-(4-(8-Methoxy-2-((2-((2-methyl-4-nitrophenyl)amino)-2-oxoethyl)thio)-4-oxoquinazolin-3(4H)-yl)phenylsulfonamido)-N-(2-methyl-4-nitrophenyl)acetamide] | 127 to 129 | > 40 | > 40 | > 40 | > 40 | > 40 |  |
| COc1cccc2c(=O)n(-c3ccc(S(=O)(=O)NCC(=O)Nc4cccc(C)c4)cc3)c(SCC(=O)Nc3cccc(C)c3)nc12 [Compound 4c] | 112 to 114 | > 40 | > 40 | > 40 | > 40 | > 40 | abolishes the cytotoxicity |
| COc1cccc2c(=O)n(-c3ccc(S(=O)(=O)NCC(=O)Nc4c(C)cccc4[N+](=O)[O-])cc3)c(SCC(=O)Nc3c(C)cccc3[N+](=O)[O-])nc12 [Compound 4m, 2-(4-(8-Methoxy-2-((2-((2-methyl-6-nitrophenyl)amino)-2-oxoethyl)thio)-4-oxoquinazolin-3(4H)-yl)phenylsulfonamido)-N-(2-methyl-6-nitrophenyl)acetamide] | 272 to 274 | > 40 | > 40 | > 40 | > 40 | > 40 |  |
| CCOc1ccc(NC(=O)CNS(=O)(=O)c2ccc(-n3c(SCC(=O)Nc4ccc(OCC)cc4)nc4c(OC)cccc4c3=O)cc2)cc1 [Compound 4i, N-(4-Ethoxyphenyl)-2-((3-(4-N-(2((4-ethoxyphenyl)amino)-2-oxoethyl)sulfamoyl)-phenyl-8-methoxy-4-oxo-3,4-dihydroquinazolin-2-yl)thio)acetamide] | > 350 | 13.8 ± 0.5 | 20.6 ± 1.6 | 22 ± 1.01 | 26.4 ± 0.79 | 18.2 ± 2.2 |  |
| COc1cccc2c(=O)n(-c3ccc(S(=O)(=O)NCC(=O)Nc4ccccc4C)cc3)c(SCC(=O)Nc3ccccc3C)nc12 [Compound 4b] | 102 to 104 | 11.4 ± 1.6 | 33.7 ± 0.8 | 35.8 ± 1 | 36.2 ± 2 | 32.7 ± 1.2 |  |
| COc1cc(NC(=O)CNS(=O)(=O)c2ccc(-n3c(SCC(=O)Nc4cc(OC)c(OC)c(OC)c4)nc4c(OC)cccc4c3=O)cc2)cc(OC)c1OC [Compound 4k] | 260 to 262 | > 40 | > 40 | > 40 | > 40 | > 40 |  |

Further lines, with some results ahead:

| melting point [°C] | IC50 (A549 (lung) cancer cells) [µM] | IC50 [1] [µM] | IC50 [2] [µM] | IC50 [3] [µM] | Structure (SMILES) | IC50 (HUVEC normal cells) [µM] | cytotoxic activity (in words, SAR discussion) [3] |
| --- | --- | --- | --- | --- | --- | --- | --- |
| 219 to 221 | > 40 | > 40 | > 40 | > 40 | CCc1ccc(NC(=O)CNS(=O)(=O)c2ccc(-n3c(SCC(=O)Nc4ccc(CC)cc4)nc4c(OC)cccc4c3=O)cc2)cc1 [Compound 4g, N-(4-ethylphenyl)-2-((3-(4-(N-(2-((4-ethylphenyl)amino)-2-oxoethyl)sulfamoyl)-phenyl)-8-methoxy-4-oxo-3,4-dihydroquinazolin-2yl)thio)acetamide] | > 40 | no antiproliferative |
| 239 to 241 | > 40 | > 40 | > 40 | > 40 | COc1cc(NC(=O)CNS(=O)(=O)c2ccc(-n3c(SCC(=O)Nc4cc(OC)cc(OC)c4)nc4c(OC)cccc4c3=O)cc2)cc(OC)c1 [Compound 4j, N-(3,5-Dimethoxyphenyl)-2-((3-(4-N-(2((3,5-dimethoxyphenyl)amino)-2-oxoethyl)-sulfa-moyl)phenyl-8-methoxy-4-oxo-3,4-dihydroquinazolin-2-yl)thio)acetamide] | > 40 |  |
| 117 to 119 | 13.3 ± 0.85 | 25.4 ± 0.95 | 31.7 ± 1 | 31.6 ± 1.3 | COc1ccc(NC(=O)CNS(=O)(=O)c2ccc(-n3c(SCC(=O)Nc4ccc(OC)cc4)nc4c(OC)cccc4c3=O)cc2)cc1 [Compound 4h, 2-(4-(8-Methoxy-2-((2-((4-methoxyphenyl)amino)-2-oxoethyl)thio)-4-oxoquinazolin-3(4H)-yl)phenylsulfonamido)-N-(4-methoxy-phenyl)acetamide] |  |  |
|  | 1.1 ± 0.01 |  | 1.5 ± 0.05 | 1.4 ± 0.3 | COc1cccc2c1C(=O)c1c(O)c3c(c(O)c1C2=O)C[C@@](O)(C(=O)CO)C[C@@H]3O[C@H]1C[C@H](N)[C@H](O)[C@H](C)O1 [Doxorubicin, reference compound] | 3.7 ± 0.2 |  |
| 246 to 248 | > 40 | > 40 | > 40 | > 40 | CCc1ccccc1NC(=O)CNS(=O)(=O)c1ccc(-n2c(SCC(=O)Nc3ccccc3CC)nc3c(OC)cccc3c2=O)cc1 [Compound 4e, N-(2-ethylphenyl)-2-((3-(4-(N-(2-((2-ethylphenyl)amino)-2-oxoethyl)sulfamoyl)-phe-nyl)-8-methoxy-4-oxo-3,4-dihydroquinazolin-2yl)thio)acetamide] | > 40 | no antiproliferative |
